The numbers were not newly measured in patent publication US20110082545A1, “DRUG ELUTING BREAST IMPLANT COVER OR COATING” (LIPOSE CORPORATION, priority 2009, published 2011), which cites them from elsewhere.

The data set concerns capsular contracture. The note with it: administered orally.

The structures appear in SMILES notation.

As for `COc1cc(C(=O)NS(=O)(=O)c2ccccc2C)ccc1Cc1cn(C)c2ccc(NC(=O)OC3CCCC3)cc12` [zafirlukast], the “ability to moderate the capsular contracture” value is on record as “demonstrated the ability to moderate the capsular contracture”.
